Measured values as given in ChEMBL document CHEMBL5338766, “X-ray Crystal Structure-Guided Discovery of Novel Indole Analogues as Colchicine-Binding Site Tubulin Inhibitors with Immune-Potentiating and Antitumor Effects against Melanoma” (J Med Chem, 2023).

How the values were obtained:
[1] = test system: MCF7; assay: Antiproliferative activity against human MCF7 cells assessed as inhibition of cell proliferation incubated for 48 hrs by MTT assay; format: functional, cell-based; settings: MCF7, 48 h
[2] = test system: B16-F10; assay: Antiproliferative activity against mouse B16-F10 cells assessed as inhibition of cell proliferation incubated for 48 hrs by MTT assay; format: functional, cell-based; settings: B16-F10, 48 h
[3] = test system: HeLa; assay: Antiproliferative activity against human HeLa cells assessed as inhibition of cell proliferation incubated for 48 hrs by MTT assay; format: functional, cell-based
[4] = test system: HepG2; assay: Antiproliferative activity against human HepG2 cells assessed as inhibition of cell proliferation incubated for 48 hrs by MTT assay; format: functional, cell-based; settings: HepG2, 48 h
[5] = test system: B16-F10; assay: Antitumor immunity in C57 mouse implanted with mouse B16-F10 cells assessed as increase in CD3+ CD8+ cytotoxic T cells in tumor at 5 mg/kg, ip administered every day for 14 days by flow cytometric analysis (reference value: 0.340%); format: functional; settings: time 14 day
[6] = test system: B16-F10; assay: Antitumor activity against mouse B16-F10 cells implanted in C57 mouse assessed as tumor growth inhibition at 5 mg/kg, ip administered every day for 14 days relative to control; format: functional; settings: B16-F10, 336 h, time 14 day, read-out: TGI
[7] = test system: B16-F10; assay: Antitumor immunity in C57 mouse implanted with mouse B16-F10 cells assessed as increase in CD3+ CD4+ helper T cells in tumor at 5 mg/kg, ip administered every day for 14 days by flow cytometric analysis (reference value: 0.332%); format: functional; settings: time 14 day
[8] = Toxicity in C57 mouse implanted with mouse B16-F10 cells assessed as body weight loss at 5 mg/kg, ip administered every day for 14 days; format: organism-based; settings: in vivo, 336 h, time 14 day
[9] = Toxicity in C57 mouse implanted with mouse B16-F10 cells assessed as pathological changes in liver at 5 mg/kg, ip administered every day for 14 days by H&E staining based microscopic analysis; format: organism-based; settings: in vivo, 336 h, time 14 day
[10] = Toxicity in C57 mouse implanted with mouse B16-F10 cells assessed as pathological changes in kidney at 5 mg/kg, ip administered every day for 14 days by H&E staining based microscopic analysis; format: organism-based; settings: in vivo, 336 h, time 14 day
[11] = Toxicity in C57 mouse implanted with mouse B16-F10 cells assessed as pathological changes in heart at 5 mg/kg, ip administered every day for 14 days by H&E staining based microscopic analysis; format: organism-based; settings: in vivo, 336 h, time 14 day
[12] = Antiproliferative activity against parental human A549S cells assessed as inhibition of cell proliferation incubated for 48 hrs by MTT assay; format: functional, cell-based
[13] = Resistance index, ratio of IC50 for antiproliferative activity against paclitaxel resistant human A2780/Taxol cells to IC50 for antiproliferative activity against parental human A2780S cells; format: functional
[14] = test system: A2780/Taxol; assay: Antiproliferative activity against paclitaxel resistant human A2780/Taxol cells assessed as inhibition of cell proliferation incubated for 48 hrs by MTT assay; format: functional, cell-based
[15] = test system: A2780S; assay: Antiproliferative activity against parental human A2780S cells assessed as inhibition of cell proliferation incubated for 48 hrs by MTT assay; format: functional, cell-based
[16] = Antiproliferative activity against paclitaxel resistant human A549/TxR cells assessed as inhibition of cell proliferation incubated for 48 hrs by MTT assay; format: functional, cell-based
[17] = Resistance index, ratio of IC50 for antiproliferative activity against paclitaxel resistant human A549/TxR cells to IC50 for antiproliferative activity against parental human A549S cells; format: functional

Row | Compound | IC50 [1] | IC50 [2] | IC50 [3] | IC50 [4] | also measured
1 | COc1cc(-c2nn(C(=O)OC(C)(C)C)c3ccc(-c4cccc5c4ccn5C)nc23)cc(OC)c1OC | 277 nM | 386 nM | 581 nM | 210 nM | 
2 | Cc1c(COc2cc3c(cc2Cl)CN(C(C)(C)C(=O)O)C(c2cccc(C#N)c2)O3)cccc1-c1ccccc1 (centres undefined) |  |  |  |  | Activity [5]: 2.27%; inhibition in vivo at 5 mg/kg [6]: 48.5%; Activity [7]: 1.43%; Activity [8]: Non-Toxic; Activity [9]: Non-Toxic; Activity [10]: Non-Toxic; Activity [11]: Non-Toxic
3 | Cn1ccc2c(-c3nc4c(-c5ccc6c(c5)OCCO6)nccc4[nH]3)cccc21 | 213 nM | 138 nM | 92 nM | 119 nM | 
4 | CC(=O)O[C@H]1C(=O)[C@@]2(C)[C@H]([C@H](OC(=O)c3ccccc3)[C@]3(O)C[C@H](OC(=O)[C@H](O)[C@@H](NC(=O)c4ccccc4)c4ccccc4)C(C)=C1C3(C)C)[C@]1(OC(C)=O)CO[C@@H]1C[C@@H]2O [PACLITAXEL] |  |  |  |  | inhibition in vivo at 5 mg/kg [6]: 70.4%; IC50 [12]: 24.9 nM; Ratio IC50 [13]: 746.5; IC50 [14]: 2020 nM; IC50 [15]: 2.7 nM; IC50 [16]: 3380 nM; Ratio IC50 [17]: 135.9; Activity [8]: Non-Toxic; Activity [9]: Non-Toxic; Activity [10]: Non-Toxic; Activity [11]: Non-Toxic
5 | COc1cc(-c2n[nH]c3ccc(-c4ccc5c(ccn5C)c4)cc23)cc(OC)c1OC | 36 nM | 98 nM | 173 nM | 49 nM | 
6 | COc1ccc(-c2nccc3[nH]c(-c4cccc5c4ccn5C)nc23)cc1OC | 699 nM | 199 nM | 453 nM | 256 nM | 
7 | COc1cc2c(c(OC)c1OC)-c1ccc(OC)c(=O)cc1[C@@H](NC(C)=O)CC2 [COLCHICINE] | 22 nM |  |  |  | IC50 [12]: 104 nM; IC50 [14]: 670 nM; IC50 [15]: 23.2 nM; IC50 [16]: 677 nM
8 | COc1cc(-c2nn(C(=O)OC(C)(C)C)c3ccc(-c4cccc5c4ccn5C)cc23)cc(OC)c1OC | 350 nM | 492 nM | 677 nM | 356 nM | 
9 | COc1cc(-c2n[nH]c3ccc(-c4ccccc4)nc23)cc(OC)c1OC | 957 nM | 683 nM | 742 nM | 115 nM | 
10 | CCn1ccc2ccc(-c3nc4c(-c5cc(OC)c(OC)c(OC)c5)nccc4[nH]3)cc21 | 602 nM | 631 nM | 818 nM | 509 nM | 
11 | COc1cc(-c2n[nH]c3cnc(-c4cccc5c4ccn5C)cc23)cc(OC)c1OC | 135 nM | 197 nM | 154 nM | 82 nM | 
12 | COc1cc(-c2n[nH]c3cnc(-c4ccc5c(ccn5C)c4)cc23)cc(OC)c1OC | 861 nM | 1000 nM | 969 nM | 248 nM | 
13 | COc1cc(-c2nn(C(=O)OC(C)(C)C)c3cnc(-c4cccc5c4ccn5C)cc23)cc(OC)c1OC | 7660 nM | 5170 nM | 5930 nM | 4700 nM | 
14 | CCn1ccc2c(-c3nc4c(-c5cc(OC)c(OC)c(OC)c5)nccc4[nH]3)cccc21 | 22 nM | 18 nM | 29 nM | 11 nM | 
15 | COc1cc(OC)cc(-c2nccc3[nH]c(-c4cccc5c4ccn5C)nc23)c1 | 260 nM | 310 nM | 105 nM | 238 nM | 
16 | COc1cc(-c2n[nH]c3ccc(-c4ccc(C)cc4)nc23)cc(OC)c1OC | 58 nM | 32 nM | 92 nM | 19 nM | 
17 | COc1cc(-c2nccc3[nH]c(-c4ccc5c(ccn5C)c4)nc23)cc(OC)c1OC | 36 nM | 60 nM | 71 nM | 44 nM | 
18 | COc1ccc(-c2ccc3[nH]nc(-c4cc(OC)c(OC)c(OC)c4)c3n2)cc1 | 319 nM | 271 nM | 188 nM | 87 nM | 
19 | COc1cc(-c2nccc3[nH]c(-c4ccc5ccn(C)c5c4)nc23)cc(OC)c1OC | 30 nM | 33 nM | 45 nM | 18 nM | 
20 | COc1cc(-c2n[nH]c3ccc(-c4cccc5c4ccn5C)nc23)cc(OC)c1OC | 28 nM | 21 nM | 40 nM | 6 nM | 
21 | CCn1ccc2cc(-c3nc4c(-c5cc(OC)c(OC)c(OC)c5)nccc4[nH]3)ccc21 | 317 nM | 237 nM | 195 nM | 130 nM | 
22 | COc1cc(-c2cccc3[nH]c(-c4cccc5c4ccn5C)nc23)cc(OC)c1OC |  |  |  | 15 nM | 
23 | COc1cc(-c2n[nH]c3ccc(-c4ccc5c(ccn5C)c4)nc23)cc(OC)c1OC | 35 nM | 43 nM | 48 nM | 16 nM | 
24 | COc1cc(-c2n[nH]c3ccc(-c4cccc5c4ccn5C)cc23)cc(OC)c1OC | 45 nM | 66 nM | 48 nM | 30 nM | 
